{
  "source": "patent US7723112B2",
  "about": "“Compositions and methods for treating and diagnosing cancer” (The Regents of the University of Michigan, priority 2005, dated 2010)",
  "test_system": "UM-C4 tumor cells",
  "conditions": "monitored four months",
  "from_the_text": "Mice were monitored for tumor growth over a period of four months and scored as either positive or negative for tumor growth such that Poisson statistics could be done to assess TG cell frequency among the input population.",
  "note": "Read-outs that look alike come from different tables or passages of the source.",
  "data": [
    {"smiles": "O=P1(N(CCCl)CCCl)NCCCO1", "note": "(stereo not shown) [CPA, Cyclophosphamide]", "values": [
      {"measurement": "mice developing tumors / mice injected", "setting": "input of 56 bulk tumor cells from CPA-treated tumors", "value": "4/8"},
      {"measurement": "mice developing tumors / mice injected", "setting": "input of 167 bulk tumor cells from CPA-treated tumors", "value": "5/8"},
      {"measurement": "mice developing tumors / mice injected", "setting": "input of 500 bulk tumor cells from CPA-treated tumors", "value": "9/9"},
      {"measurement": "mice developing tumors", "setting": "input of 1,500 bulk tumor cells from CPA-treated tumors", "value": "All eight"}
    ]}
  ]
}
